{"source": "ChEMBL document CHEMBL1130385", "about": "“Synthesis and biological activities of conformationally restricted, tricyclic nonclassical antifolates as inhibitors of dihydrofolate reductases” (J Med Chem, 1997)", "key": {"Dihydrofolate reductase [1]": {"biological_target": "T1, Dihydrofolate reductase (Rattus norvegicus, UniProt Q920D2)", "T1 sequence (Q920D2 whole entry)": "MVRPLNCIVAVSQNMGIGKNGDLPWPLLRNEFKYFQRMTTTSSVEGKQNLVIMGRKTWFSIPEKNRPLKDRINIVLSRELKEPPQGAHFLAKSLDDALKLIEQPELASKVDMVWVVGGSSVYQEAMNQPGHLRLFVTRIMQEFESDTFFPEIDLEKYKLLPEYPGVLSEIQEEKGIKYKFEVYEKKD", "description": "Inhibitory concentration against Rat liver Dihydrofolate reductase"}, "[2]": {"biological_target": "T2, Bifunctional dihydrofolate reductase-thymidylate synthase (Toxoplasma gondii, UniProt Q07422)", "T2 sequence (Q07422 whole entry)": "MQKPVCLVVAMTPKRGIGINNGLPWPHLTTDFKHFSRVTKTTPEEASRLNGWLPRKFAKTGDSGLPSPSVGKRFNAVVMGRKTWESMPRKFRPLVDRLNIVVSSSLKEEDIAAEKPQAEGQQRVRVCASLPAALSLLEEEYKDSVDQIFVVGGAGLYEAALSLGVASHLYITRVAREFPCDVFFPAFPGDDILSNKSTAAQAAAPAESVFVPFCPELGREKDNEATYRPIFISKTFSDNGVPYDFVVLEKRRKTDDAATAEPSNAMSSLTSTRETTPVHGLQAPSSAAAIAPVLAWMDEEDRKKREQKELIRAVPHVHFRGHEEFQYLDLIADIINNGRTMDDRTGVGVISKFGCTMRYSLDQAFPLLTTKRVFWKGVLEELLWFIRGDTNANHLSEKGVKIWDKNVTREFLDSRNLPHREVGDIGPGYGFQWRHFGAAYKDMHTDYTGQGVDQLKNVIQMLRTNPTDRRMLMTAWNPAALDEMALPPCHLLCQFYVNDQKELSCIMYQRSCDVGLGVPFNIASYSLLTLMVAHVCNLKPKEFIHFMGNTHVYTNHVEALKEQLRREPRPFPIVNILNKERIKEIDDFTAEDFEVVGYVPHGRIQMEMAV", "experiment": "Inhibitory concentration against Toxoplasma gondii Dihydrofolate reductase"}, "Dihydrofolate reductase [3]": {"biological_target": "T3, Dihydrofolate reductase (Pneumocystis carinii, UniProt P16184)", "T3 sequence (P16184 whole entry)": "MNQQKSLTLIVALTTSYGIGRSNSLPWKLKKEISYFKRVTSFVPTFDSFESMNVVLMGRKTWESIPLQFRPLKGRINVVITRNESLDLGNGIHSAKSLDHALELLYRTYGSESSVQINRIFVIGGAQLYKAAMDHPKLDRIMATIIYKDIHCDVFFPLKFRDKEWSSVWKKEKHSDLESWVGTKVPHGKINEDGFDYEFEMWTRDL", "description": "Inhibitory concentration against Pneumocystis carinii Dihydrofolate reductase"}}}
{"smiles": "COc1cc(N2CCC3c4c(N)nc(N)nc4NCC3C2)cc(OC)c1OC", "note": "(centres undefined)", "values": [{"measurement": "IC50", "setting": "Dihydrofolate reductase [1]", "value": 160, "unit": "nM"}, {"measurement": "IC50", "setting": "[2]", "value": 290, "unit": "nM"}]}
{"smiles": "COc1cc(N2C=Cc3c(cnc4nc(N)nc(N)c34)C2)cc(OC)c1OC", "values": [{"measurement": "IC50", "setting": "Dihydrofolate reductase [1]", "value": 470, "unit": "nM"}, {"measurement": "IC50", "setting": "[2]", "value": 760, "unit": "nM"}]}
{"smiles": "COc1cc(N2CCc3c(cnc4nc(N)nc(N)c34)C2)cc(OC)c1OC", "values": [{"measurement": "IC50", "setting": "Dihydrofolate reductase [1]", "value": "> 2700", "unit": "nM"}, {"measurement": "IC50", "setting": "Dihydrofolate reductase [3]", "value": "> 2270", "unit": "nM"}]}
{"smiles": "COc1cc(N2CCc3c(c(=O)[nH]c4nc(N)nc(N)c34)C2)cc(OC)c1OC", "values": [{"measurement": "IC50", "setting": "Dihydrofolate reductase [1]", "value": "> 5000", "unit": "nM"}, {"measurement": "IC50", "setting": "Dihydrofolate reductase [3]", "value": "> 5000", "unit": "nM"}]}
{"smiles": "COc1c(Cl)c(-n2ccc3c4c(N)nc(N)nc4nc(=O)c-3c2)c(Cl)c(OC)c1OC", "values": [{"measurement": "IC50", "setting": "Dihydrofolate reductase [1]", "value": 500, "unit": "nM"}]}
{"smiles": "COc1cc(-n2ccc3c4c(N)nc(N)nc4nc(=O)c-3c2)cc(OC)c1OC", "values": [{"measurement": "IC50", "setting": "Dihydrofolate reductase [1]", "value": 86, "unit": "nM"}, {"measurement": "IC50", "setting": "Dihydrofolate reductase [3]", "value": 2400, "unit": "nM"}, {"measurement": "IC50", "setting": "[2]", "value": 520, "unit": "nM"}]}
{"smiles": "COc1cc(N2C=C3C(=O)N=c4nc(N)nc(N)c4=C3CC2)cc(OC)c1OC", "values": [{"measurement": "IC50", "setting": "Dihydrofolate reductase [1]", "value": 240, "unit": "nM"}, {"measurement": "IC50", "setting": "[2]", "value": 1120, "unit": "nM"}]}
